The text below walks through data of patent publication US8604217B2, “Compound, a process for its preparation, a pharmaceutical composition, use of a compound, a method for modulating or regulating serine/threonine kinases and a serine/threonine kinases modulating agent” (Selvita S.A., priority 2009, dated 2013).

Some targets named below: EGFR(h) (Homo sapiens (Human), UniProt P00533); mTOR/FKBP12(h) (Homo sapiens (Human), UniProt P42345); CSK(h) (Homo sapiens (Human), UniProt P41240).
Common to all, as to experiment: KinaseProfiler kinase panel
Holding throughout (format): biochemical

Chain of EGFR(h) (P00533 25-1210): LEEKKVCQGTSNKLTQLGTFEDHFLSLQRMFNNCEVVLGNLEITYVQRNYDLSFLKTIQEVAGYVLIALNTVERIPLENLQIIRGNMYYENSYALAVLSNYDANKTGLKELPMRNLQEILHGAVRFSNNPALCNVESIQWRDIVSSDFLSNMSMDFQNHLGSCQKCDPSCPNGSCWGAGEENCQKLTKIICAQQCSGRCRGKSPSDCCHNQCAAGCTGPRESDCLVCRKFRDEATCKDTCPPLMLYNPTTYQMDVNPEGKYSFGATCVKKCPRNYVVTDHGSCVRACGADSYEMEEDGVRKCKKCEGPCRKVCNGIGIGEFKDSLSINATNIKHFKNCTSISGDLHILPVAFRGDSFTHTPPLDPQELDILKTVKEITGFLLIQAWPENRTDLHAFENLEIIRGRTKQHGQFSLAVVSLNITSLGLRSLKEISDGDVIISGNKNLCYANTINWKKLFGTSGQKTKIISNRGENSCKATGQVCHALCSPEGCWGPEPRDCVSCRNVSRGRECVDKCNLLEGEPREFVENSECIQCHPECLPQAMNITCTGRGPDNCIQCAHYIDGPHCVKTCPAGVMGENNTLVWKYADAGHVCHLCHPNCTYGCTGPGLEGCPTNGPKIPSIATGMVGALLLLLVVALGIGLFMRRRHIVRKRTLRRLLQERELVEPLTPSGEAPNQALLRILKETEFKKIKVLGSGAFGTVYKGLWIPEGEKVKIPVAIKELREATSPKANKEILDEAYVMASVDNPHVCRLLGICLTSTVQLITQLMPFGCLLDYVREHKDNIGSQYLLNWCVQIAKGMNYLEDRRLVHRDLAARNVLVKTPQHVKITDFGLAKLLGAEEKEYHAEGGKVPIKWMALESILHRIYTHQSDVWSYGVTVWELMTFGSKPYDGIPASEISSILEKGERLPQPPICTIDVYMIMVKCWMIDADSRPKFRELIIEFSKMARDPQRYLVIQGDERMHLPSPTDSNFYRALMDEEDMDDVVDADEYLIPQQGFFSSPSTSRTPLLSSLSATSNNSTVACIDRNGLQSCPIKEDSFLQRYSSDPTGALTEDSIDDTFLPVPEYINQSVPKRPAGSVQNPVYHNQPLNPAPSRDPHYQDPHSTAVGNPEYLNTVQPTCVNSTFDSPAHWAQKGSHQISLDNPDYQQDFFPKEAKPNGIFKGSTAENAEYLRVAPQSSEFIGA
Chain of CSK(h) (P41240 whole entry): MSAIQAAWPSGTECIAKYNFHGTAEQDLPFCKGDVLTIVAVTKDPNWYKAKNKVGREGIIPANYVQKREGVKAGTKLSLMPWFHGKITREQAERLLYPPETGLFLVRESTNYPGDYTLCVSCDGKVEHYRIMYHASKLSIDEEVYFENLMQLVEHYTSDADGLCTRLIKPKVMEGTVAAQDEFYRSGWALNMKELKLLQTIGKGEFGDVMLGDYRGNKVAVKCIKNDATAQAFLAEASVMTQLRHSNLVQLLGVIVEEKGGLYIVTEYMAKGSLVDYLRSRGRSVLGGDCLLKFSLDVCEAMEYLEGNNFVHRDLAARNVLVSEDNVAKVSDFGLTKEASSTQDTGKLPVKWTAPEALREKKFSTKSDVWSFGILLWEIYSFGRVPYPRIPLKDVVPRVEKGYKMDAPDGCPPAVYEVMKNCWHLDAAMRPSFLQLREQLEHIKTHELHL
Chain of mTOR/FKBP12(h) (P42345 1362-2549): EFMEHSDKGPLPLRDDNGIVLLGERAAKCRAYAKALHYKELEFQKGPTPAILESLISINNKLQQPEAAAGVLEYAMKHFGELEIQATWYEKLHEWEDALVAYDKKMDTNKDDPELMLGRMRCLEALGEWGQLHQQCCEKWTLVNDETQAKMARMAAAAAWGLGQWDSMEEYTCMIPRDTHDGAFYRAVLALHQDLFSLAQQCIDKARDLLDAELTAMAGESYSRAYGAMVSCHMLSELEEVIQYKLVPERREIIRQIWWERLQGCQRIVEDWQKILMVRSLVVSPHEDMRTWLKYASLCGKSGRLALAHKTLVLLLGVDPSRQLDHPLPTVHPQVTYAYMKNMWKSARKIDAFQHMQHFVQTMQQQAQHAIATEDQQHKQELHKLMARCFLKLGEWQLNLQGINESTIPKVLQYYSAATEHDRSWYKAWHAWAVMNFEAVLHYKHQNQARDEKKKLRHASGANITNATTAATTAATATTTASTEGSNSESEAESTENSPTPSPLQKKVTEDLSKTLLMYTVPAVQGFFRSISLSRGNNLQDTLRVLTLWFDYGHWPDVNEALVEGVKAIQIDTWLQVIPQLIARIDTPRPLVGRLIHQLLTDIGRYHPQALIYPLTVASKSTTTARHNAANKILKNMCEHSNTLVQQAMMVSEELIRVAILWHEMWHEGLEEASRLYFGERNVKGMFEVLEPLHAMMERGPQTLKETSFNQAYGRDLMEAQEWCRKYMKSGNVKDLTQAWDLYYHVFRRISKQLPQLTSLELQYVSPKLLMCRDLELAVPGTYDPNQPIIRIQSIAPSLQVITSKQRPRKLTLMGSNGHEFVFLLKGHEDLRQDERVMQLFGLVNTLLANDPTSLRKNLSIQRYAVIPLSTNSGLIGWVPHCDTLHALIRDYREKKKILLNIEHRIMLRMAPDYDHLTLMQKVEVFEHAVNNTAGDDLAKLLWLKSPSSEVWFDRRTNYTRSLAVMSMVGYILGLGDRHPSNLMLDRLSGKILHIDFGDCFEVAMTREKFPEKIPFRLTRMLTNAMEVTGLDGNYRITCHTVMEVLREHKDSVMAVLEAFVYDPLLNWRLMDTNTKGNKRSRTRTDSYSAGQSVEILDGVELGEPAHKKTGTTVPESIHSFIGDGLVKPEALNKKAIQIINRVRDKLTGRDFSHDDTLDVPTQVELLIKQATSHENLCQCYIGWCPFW

Consider `CCn1c(N2CCNCC2)nc2c(Br)c(Br)c(Br)c(Br)c21` [Compound 416, 4,5,6,7-tetrabromo-1-ethyl-2-(piperazin-1-yl)-1H-benzo[d]imidazole], for which the values for the remaining activity at 1 µM at EGFR(h), on mTOR/FKBP12(h) and on CSK(h) were 89%, 103% and 91%, respectively.
